Where two headings read alike, the source gives them in different places.
Tests used:
[1] = tested on: homologous recombination in BxPC3 cells; design: method as in PMID 30660828; conditions: earlier triazole; cited from earlier work
BRC4–RAD51 interaction = molecular target: T1, BRC4–RAD51 interaction (Homo sapiens, UniProt Q06609); assay: Competitive biochemical ELISA assay (biotinylated BRC4 peptide vs RAD51); format: binding
T1 construct: purchased Creative Biomart (RAD51); Life Technologies (BRC4 peptide)
T1 sequence (Q06609 1-339): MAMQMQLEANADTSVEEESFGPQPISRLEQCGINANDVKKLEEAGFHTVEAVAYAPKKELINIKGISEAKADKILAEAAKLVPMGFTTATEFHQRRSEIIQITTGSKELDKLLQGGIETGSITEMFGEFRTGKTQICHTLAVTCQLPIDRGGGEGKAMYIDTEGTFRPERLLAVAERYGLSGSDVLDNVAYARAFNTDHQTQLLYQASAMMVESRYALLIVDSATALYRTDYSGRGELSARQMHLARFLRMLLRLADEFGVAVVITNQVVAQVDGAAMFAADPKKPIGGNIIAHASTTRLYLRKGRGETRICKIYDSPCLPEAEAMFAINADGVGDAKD
Protocol: To investigate the mechanism of action of the new dihydroquinolone pyrazoline derivatives, different biological assays were performed. As a primary screening, the ability of compounds 5d–57d to inhibit RAD51-BRCA2 interaction was investigated with a competitive biochemical ELISA assay against the parent compound 4d (Table 1). This assay is effective in evaluating the ability of new molecules to compete with BRC4 to bind to RAD51.[30] […] 18d–21d, 23d, 25d, 30d, and 31d were active at micromolar range, all very similar to the initial hit. […] The replacement of the aromatic ring A in combination with the substitution of the pyrazoline nitrogen with either propionyl or acetyl chain yielded compounds 33d–51d. […] As expected for PPI disruptors, the SARs of the new series of dihydroquinolone pyrazoline were rather complex to rationalize, with many cliffs and spikes that were difficult to understand. […] Accordingly, 4d, 12d, 18d, 20d–23d, 30d, 31d, 33d–36d, 39d, 45d, and 49d were submitted to cell-based study (Table 2).
Competitive ELISA screening assay using biotinylated BRC4 peptide to disrupt the BRC4–RAD51 interaction was performed by modifying the method described by Rajendra et al.[33] BRC4-biotinylated peptide (N-term biotin-[…] from Life Technologies) was used to coat 384-well plates (Nunc). After washing with PBS containing 0.05% Tween-20 (PBST) and blocking with the solution BSA 1% /PBST, overnight hybridization with human RAD51 protein (NP_002866 Creative Biomart, NY) was performed. Test compounds were added in dose response from 0.01 to 100 μM in triplicate with constant DMSO 1%. Antibody raised against RAD51 (Millipore) and HRP-secondary antibody staining to develop the 3,3′,5,5′-tetramethylbenzidine signal (Sigma) quenched with 1 M HCl was used as the assay readout. Colorimetric measure was read on a Victor5 (PerkinElmer) plate reader. BRC4 and Rad51 were included in the assay as positive control. Results were analyzed by using GraphPad software.

[2] = tested on: homologous recombination in BxPC3 cells; assay: Homologous recombination assay (two-plasmid recombination, real-time PCR); format: cell-based, human; conditions: BxPC3; one or two doses in the range of the ELISA EC50; NDD = not dose-dependent
Source text: Our working hypothesis is that compounds disrupting RAD51-BRCA2 interaction should affect HR repair and increase the efficacy of PARPi in treating breast, ovarian, and pancreatic cancer. For its clinical relevance, pancreatic adenocarcinoma was selected as our final model for cell-based experiments, and BxPC3 cells were selected for a straightforward comparison with the previously reported triazole derivatives.[30],[31] BxPC3 is derived from a human adenocarcinoma that expresses fully functional BRCA2.[38] As shown in Table 2 and according to the rationale of our hypothesis, our preliminary screening consisted of verifying the efficacy of compounds in inhibiting cell HR and/or in increasing the antiproliferative effect of olaparib. […] HR activity was assessed by evaluating the recombination rate between two transfected plasmids, using a commercially available assay. […] As for the emissucinic acid-containing compounds (4d, 12d, 18d, 20d–23d, 30d, 31d), one of the reasons for their lower potency in cells might be the general poor permeability, likely related to the ionizable acid moiety. […] We then characterized 35d in additional biophysical and cell-based experiments.
Homologous recombination (HR) was assessed by using a commercially available assay (Norgen). This assay is based on cell transfection with two plasmids that, upon cell entry, recombine. The efficiency of HR can be assessed by real-time PCR, using primer mixtures included in the assay kit. Different primer mixtures allow one to discriminate between the original plasmid backbones and their recombination product.
BxPC3 cells (2 × 10^5 per well) were seeded in a 24-well plate and allowed to adhere overnight. Co-transfection with the two plasmids was performed in Lipofectamine 2000 (Invitrogen) according to the manufacturer’s instructions. During transfection (5 h), cells were exposed to different doses of RAD51-BRCA2 disruptors, dissolved in RPMI in the presence of 0.6% DMSO. After washing with PBS, cells were harvested, and DNA was isolated using Illustra Tissue and Cell Genomic Prep Mini Spin kit (GE Healthcare). Sample concentration was measured using an ONDA Nano Genius photometer. The efficiency of HR was assessed by real-time PCR, using 25 ng of template, the primer mixtures included in the assay kit and following the protocol indicated by the manufacturer. Data analysis was based on the ΔΔCt method: [recombination product/backbone plasmids]^treated versus [recombination product/backbone plasmids]^control.

[3] = Solubility (as observed in cell culture media / stated); format: physicochemical; conditions: cell culture media
Capan-1 cells = assay: Immunofluorescence of nuclear γ-H2AX foci (DNA damage); format: cell-based, human; conditions: Capan-1, 48 h, 10 μM olaparib alone
Protocol: To evaluate DNA damage through γH2AX nuclear foci, BXPC3 and Capan1 cells were seeded on glass coverslips in 6-well tissue culture plate (2 × 10^5 cells/well) and allowed to adhere overnight. After 48 h treatment with olaparib (10 μM) or 35d (20 μM) given alone or in combination, cultures growing on coverslips were fixed and treated as described above. For this experiment, the used antibodies were a rabbit polyclonal anti-γH2AX (Abcam, 1:1000 in 5% BSA/PBS) and a secondary anti-rabbit rhodamine-labeled (Novus Biologicals, 1:1000 in 1% BSA/PBS). For both experiments, images were acquired using a Nikon fluorescent microscope equipped with filters for FITC, TRITC, and DAPI. The percentage of cells bearing nuclear foci was estimated by two independent observers, by analyzing 100–250 cells for each treatment sample.

In the case of `O=C(CSc1nnc(Cn2c(=O)sc3ccccc32)n1CCCc1ccccc1)NC1CCCCC1` [Compound 3], the HR inhibition [1] is listed as at most 40%.

In the case of `CCC(=O)N1N=C(c2c(-c3ccccc3)c3cc(Cl)ccc3[nH]c2=O)CC1c1ccc(Br)cc1` (stereo not drawn) [Compound 34d, 3-(5-(4-Bromophenyl)-1-propionyl-4,5-dihydro-1H-pyrazol-3-yl)-6-chloro-4-phenylquinolin-2(1H)-one], the EC50 (BRC4–RAD51 interaction; Table 2, compounds selected for cell-based study, read-out: EC50 ELISA) is reported as 19 ± 1 µM, the EC50 (BRC4–RAD51 interaction; competition with BRC4 for RAD51, triplicate, ± standard deviation, NA = not active, racemic mixtures unless enantiomer named, read-out: EC50 (μM) on ELISA assay) is reported as 19 ± 1 µM and the “HR inhibition (in words)” value [2] is reported as “HR inhibition = not present”. The “solubility in cell culture media” value [3] was “poor solubility”.

With `O=C(c1cc(Cc2n[nH]c(=O)c3ccccc23)ccc1F)N1CCN(C(=O)C2CC2)CC1` [olaparib] the “γ-H2AX labeling in nuclei” value (Capan-1 cells) was “increased nuclear labeling”.
